The source of these data is ChEMBL document CHEMBL5030507, “Structure-Based Design of a Selective Class I Histone Deacetylase (HDAC) Near-Infrared (NIR) Probe for Epigenetic Regulation Detection in Triple-Negative Breast Cancer (TNBC)” (J Med Chem, 2021).

Series [1] concerns the target T1, Histone deacetylase 11 (Homo sapiens, UniProt Q96DB2).
T1 sequence (Q96DB2 whole entry): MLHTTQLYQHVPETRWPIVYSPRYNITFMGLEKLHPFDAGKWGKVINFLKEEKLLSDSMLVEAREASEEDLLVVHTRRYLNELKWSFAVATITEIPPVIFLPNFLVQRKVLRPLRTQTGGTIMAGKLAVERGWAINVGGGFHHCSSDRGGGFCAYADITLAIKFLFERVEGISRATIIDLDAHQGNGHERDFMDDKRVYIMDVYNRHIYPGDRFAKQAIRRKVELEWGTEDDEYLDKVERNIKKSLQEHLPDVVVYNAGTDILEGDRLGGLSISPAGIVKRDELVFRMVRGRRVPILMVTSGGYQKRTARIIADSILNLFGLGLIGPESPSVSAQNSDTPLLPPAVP
Nature of the series: Inhibition of recombinant human full length HDAC11 expressed in baculovirus infected Sf9 cells measured after 60 mins by FRET assay.

Series [2] has as its target Histone deacetylase 1 (Homo sapiens, UniProt Q13547). Nature of the series: Inhibition of recombinant human C-terminal FLAG/His-tagged HDAC1 (1 to 482 residues) expressed in Sf9 insect cells using fluorometric substrate measured after 60 mins by FRET assay.
In series [3] the target is Histone deacetylase 3/Nuclear receptor corepressor 2 (HDAC3/NCoR2) (Homo sapiens, UniProt O15379). Put plainly: Inhibition of C-terminal His-tagged recombinant human HDAC3 (1 to 428 residues)/N-terminal GST-tagged recombinant human NCoR2 (395 to 489 residues) co-expressed in baculovirus infected Sf9 cells using fluorometric substrate measured after 60 mins by FRET assay.

The target in series [4] is Histone deacetylase 4 (Homo sapiens, UniProt P56524). Put plainly: Inhibition of recombinant human N-terminal GST-tagged/C-terminal His-tagged HDAC4 (627 to 1084 residues) expressed in baculovirus infected Sf9 insect cells using fluorogenic substrate measured after 60 mins by FRET assay.
Series [5] deals with Histone deacetylase 5 (Homo sapiens, UniProt Q9UQL6). Nature of the series: Inhibition of recombinant human full length N-terminal GST-tagged HDAC5 expressed in baculovirus infected Sf9 insect cells using fluorogenic substrate measured after 60 mins by FRET assay.
The target of series [6] is T2, Histone deacetylase 7 (Homo sapiens, UniProt Q8WUI4).
T2 sequence (Q8WUI4 whole entry): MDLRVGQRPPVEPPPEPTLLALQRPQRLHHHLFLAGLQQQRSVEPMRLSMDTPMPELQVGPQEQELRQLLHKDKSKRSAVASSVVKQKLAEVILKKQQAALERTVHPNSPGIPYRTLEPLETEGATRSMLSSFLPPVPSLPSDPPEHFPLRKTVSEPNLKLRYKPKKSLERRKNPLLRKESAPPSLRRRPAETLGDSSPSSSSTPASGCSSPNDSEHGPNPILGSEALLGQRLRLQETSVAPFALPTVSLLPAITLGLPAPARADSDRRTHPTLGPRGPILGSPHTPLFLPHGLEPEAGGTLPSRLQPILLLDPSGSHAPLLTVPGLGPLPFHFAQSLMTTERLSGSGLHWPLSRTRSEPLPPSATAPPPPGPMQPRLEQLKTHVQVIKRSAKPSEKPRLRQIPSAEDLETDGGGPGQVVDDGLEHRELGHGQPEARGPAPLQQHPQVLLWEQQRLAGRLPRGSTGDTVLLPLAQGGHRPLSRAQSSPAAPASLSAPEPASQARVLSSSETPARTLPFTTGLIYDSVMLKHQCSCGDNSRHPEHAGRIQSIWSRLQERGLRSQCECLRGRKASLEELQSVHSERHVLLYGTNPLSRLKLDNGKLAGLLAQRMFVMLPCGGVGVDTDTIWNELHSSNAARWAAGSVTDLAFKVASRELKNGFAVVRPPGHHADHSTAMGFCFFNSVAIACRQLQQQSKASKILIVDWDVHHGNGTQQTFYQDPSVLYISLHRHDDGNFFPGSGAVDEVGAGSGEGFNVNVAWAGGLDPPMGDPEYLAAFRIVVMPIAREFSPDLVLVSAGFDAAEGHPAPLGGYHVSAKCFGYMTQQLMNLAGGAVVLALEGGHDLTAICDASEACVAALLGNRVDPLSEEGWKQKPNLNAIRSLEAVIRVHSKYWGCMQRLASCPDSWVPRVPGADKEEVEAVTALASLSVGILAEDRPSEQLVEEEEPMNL
Nature of the series: Inhibition of recombinant human N-terminal GST-tagged HDAC7 expressed in baculovirus infected Sf9 insect cells using fluorogenic substrate measured after 60 mins by FRET assay.

The target of series [7] is Histone deacetylase 9 (Homo sapiens, UniProt Q9UKV0). Nature of the series: Inhibition of recombinant human C-terminal His-tagged HDAC9 (604 to 1066 residues) expressed in baculovirus infected Sf9 insect cells using fluorogenic substrate measured after 60 mins by FRET assay.
Series [8] deals with T3, Polyamine deacetylase HDAC10 (Homo sapiens, UniProt Q969S8).
T3 sequence (Q969S8 whole entry): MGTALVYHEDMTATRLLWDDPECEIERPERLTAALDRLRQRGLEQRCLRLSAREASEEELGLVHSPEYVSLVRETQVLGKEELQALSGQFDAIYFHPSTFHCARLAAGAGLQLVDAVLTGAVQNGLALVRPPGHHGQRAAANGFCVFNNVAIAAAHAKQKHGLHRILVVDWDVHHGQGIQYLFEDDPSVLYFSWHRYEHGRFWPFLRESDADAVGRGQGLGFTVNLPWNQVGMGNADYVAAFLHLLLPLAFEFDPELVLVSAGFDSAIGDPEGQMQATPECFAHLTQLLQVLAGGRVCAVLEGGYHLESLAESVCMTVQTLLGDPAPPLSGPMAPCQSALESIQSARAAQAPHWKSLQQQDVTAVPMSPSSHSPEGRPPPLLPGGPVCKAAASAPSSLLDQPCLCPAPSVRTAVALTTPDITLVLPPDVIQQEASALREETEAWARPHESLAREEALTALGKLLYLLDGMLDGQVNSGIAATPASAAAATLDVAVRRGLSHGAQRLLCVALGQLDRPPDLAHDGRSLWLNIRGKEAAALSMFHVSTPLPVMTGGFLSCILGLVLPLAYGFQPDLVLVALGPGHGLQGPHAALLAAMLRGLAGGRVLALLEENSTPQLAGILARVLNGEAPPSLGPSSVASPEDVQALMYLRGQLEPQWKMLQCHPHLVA
Put plainly: Inhibition of recombinant human N-terminal FLAG tagged HDAC10 (2 to 631 residues) expressed in baculovirus infected Sf9 insect cells using fluorogenic substrate measured after 60 mins by FRET assay.

Series [9] has as its system MDA-MB-231. Nature of the series: Antiproliferative activity against triple-negative human MDA-MB-231 cells assessed as cell growth inhibition incubated for 72 hrs by CCK8 assay. In kind it is functional. A general note: Tetrazolium assays rely on reduction of a dye to a coloured formazan, in cell work by metabolically active cells.
A short description of series [10]: Cytotoxicity against human WI-38 cells assessed as cell growth inhibition incubated for 72 hrs by CCK8 assay. In kind it is cell-based.
Series [11] in a line: Selectivity index, ratio of GI50 for cytotoxicity against human WI-38 cells to GI50 for antiproliferative activity against triple-negative human MDA-MB-231 cells. In kind it is toxicity, cell-based. To be noted: WI-38 cells versus MDA-MB-231 cells, read-out: RatioGI50.

Chain of Histone deacetylase 4 (P56524 whole entry, the tested form may be a part): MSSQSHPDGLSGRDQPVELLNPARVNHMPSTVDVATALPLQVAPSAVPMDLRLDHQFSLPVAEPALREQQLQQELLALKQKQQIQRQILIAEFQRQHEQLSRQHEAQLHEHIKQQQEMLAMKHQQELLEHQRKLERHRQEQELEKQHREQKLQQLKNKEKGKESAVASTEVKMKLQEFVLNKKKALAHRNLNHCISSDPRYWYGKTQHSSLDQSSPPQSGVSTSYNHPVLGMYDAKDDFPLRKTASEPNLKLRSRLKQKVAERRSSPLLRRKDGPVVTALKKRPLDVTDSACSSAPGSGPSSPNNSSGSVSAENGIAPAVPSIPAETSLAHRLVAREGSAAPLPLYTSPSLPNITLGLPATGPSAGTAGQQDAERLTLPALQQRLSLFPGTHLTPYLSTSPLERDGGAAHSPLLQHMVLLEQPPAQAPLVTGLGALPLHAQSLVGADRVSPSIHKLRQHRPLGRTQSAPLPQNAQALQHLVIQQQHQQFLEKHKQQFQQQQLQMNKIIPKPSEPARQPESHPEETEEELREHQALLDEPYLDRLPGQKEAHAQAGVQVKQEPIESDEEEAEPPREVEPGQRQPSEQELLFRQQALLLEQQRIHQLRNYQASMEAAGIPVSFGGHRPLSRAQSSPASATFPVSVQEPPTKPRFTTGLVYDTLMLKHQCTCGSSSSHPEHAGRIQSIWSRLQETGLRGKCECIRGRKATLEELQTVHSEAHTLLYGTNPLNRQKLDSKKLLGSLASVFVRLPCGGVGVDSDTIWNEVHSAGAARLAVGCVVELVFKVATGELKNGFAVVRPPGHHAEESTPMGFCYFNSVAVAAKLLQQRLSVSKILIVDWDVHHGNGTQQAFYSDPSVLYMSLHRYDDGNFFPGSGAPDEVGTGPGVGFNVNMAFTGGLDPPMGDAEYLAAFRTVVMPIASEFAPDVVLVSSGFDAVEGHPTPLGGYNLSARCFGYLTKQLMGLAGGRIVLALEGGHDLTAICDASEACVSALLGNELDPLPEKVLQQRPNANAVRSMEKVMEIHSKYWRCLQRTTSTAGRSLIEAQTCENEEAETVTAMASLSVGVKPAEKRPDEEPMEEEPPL
Chain of Histone deacetylase 3/Nuclear receptor corepressor 2 (HDAC3/NCoR2) (O15379 whole entry, the tested form may be a part): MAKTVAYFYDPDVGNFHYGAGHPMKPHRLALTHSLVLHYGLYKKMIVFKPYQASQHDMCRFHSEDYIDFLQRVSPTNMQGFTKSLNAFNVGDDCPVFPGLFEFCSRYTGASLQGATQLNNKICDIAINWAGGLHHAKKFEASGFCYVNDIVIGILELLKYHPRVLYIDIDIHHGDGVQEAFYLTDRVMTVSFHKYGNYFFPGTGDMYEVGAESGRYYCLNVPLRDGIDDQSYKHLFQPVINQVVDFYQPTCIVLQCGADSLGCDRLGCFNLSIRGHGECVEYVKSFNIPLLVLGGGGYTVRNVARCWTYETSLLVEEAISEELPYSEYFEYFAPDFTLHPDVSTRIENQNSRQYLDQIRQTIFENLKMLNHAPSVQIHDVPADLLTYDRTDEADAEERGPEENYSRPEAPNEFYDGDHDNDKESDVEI
Chain of Histone deacetylase 3/Nuclear receptor corepressor 2 (HDAC3/NCoR2) (Q9Y618 whole entry, further chain, the tested form may be a part): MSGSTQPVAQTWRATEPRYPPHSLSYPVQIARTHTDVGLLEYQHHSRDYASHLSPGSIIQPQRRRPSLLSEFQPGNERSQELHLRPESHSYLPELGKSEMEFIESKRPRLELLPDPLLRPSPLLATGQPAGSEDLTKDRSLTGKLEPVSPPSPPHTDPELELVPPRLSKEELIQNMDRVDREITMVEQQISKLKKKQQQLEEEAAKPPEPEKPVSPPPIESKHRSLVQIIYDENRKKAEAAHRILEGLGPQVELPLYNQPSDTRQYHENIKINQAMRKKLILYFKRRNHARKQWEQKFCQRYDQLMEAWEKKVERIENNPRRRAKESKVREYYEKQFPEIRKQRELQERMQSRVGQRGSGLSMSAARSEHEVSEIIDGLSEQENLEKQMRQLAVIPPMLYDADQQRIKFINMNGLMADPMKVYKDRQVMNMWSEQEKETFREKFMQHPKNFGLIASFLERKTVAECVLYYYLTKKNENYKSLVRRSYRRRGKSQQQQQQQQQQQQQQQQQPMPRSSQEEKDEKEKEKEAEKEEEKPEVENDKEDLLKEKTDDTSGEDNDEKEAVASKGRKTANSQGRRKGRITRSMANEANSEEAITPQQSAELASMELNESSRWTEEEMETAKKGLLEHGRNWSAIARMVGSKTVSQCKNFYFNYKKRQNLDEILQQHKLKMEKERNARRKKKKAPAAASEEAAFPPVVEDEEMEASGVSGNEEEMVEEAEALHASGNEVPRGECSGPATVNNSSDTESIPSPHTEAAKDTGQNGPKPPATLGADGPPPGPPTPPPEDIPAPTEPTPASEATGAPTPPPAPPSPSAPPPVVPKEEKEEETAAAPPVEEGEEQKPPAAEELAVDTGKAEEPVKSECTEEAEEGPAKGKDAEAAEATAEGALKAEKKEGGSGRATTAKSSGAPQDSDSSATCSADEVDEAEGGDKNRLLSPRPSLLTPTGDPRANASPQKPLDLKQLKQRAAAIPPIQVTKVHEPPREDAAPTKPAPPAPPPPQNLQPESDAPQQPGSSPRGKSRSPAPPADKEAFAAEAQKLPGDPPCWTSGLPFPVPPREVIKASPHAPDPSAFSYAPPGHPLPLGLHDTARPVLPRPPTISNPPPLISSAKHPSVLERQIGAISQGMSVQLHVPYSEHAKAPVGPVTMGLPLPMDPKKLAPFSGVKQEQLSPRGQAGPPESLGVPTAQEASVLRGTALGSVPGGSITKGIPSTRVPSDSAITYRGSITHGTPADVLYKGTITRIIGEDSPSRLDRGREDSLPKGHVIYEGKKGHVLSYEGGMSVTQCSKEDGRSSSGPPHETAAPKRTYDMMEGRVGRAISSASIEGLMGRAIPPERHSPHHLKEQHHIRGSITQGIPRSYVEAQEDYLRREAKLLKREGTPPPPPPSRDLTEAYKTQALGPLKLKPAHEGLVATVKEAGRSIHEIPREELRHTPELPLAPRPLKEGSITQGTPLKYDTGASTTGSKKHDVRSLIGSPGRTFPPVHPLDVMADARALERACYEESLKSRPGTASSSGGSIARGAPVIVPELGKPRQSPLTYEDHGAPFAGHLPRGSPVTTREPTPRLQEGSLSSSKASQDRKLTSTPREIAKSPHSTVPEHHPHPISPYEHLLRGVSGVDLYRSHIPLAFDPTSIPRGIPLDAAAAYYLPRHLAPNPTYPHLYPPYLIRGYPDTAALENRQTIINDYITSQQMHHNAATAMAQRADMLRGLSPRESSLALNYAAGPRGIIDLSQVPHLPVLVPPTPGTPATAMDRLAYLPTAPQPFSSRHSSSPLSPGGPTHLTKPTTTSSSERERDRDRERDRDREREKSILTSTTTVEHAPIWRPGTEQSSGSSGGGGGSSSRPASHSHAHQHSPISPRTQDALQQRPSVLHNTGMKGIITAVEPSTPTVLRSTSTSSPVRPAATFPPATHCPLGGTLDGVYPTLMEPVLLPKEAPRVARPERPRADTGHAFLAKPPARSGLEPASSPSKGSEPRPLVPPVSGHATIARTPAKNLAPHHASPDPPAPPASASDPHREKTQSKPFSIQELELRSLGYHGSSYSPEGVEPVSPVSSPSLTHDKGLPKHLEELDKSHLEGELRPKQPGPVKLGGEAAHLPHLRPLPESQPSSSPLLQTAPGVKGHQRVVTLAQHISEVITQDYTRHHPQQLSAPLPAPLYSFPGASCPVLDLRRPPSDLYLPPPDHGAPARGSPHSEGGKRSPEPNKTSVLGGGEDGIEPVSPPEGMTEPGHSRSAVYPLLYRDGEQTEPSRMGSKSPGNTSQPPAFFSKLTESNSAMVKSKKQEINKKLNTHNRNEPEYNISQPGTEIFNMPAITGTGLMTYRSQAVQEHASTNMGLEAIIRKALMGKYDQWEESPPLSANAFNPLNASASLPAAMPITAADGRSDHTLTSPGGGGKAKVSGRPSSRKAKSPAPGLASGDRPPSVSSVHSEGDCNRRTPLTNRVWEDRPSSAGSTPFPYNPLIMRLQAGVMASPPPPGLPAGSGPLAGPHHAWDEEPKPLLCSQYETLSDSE
Chain of Histone deacetylase 1 (Q13547 whole entry, the tested form may be a part): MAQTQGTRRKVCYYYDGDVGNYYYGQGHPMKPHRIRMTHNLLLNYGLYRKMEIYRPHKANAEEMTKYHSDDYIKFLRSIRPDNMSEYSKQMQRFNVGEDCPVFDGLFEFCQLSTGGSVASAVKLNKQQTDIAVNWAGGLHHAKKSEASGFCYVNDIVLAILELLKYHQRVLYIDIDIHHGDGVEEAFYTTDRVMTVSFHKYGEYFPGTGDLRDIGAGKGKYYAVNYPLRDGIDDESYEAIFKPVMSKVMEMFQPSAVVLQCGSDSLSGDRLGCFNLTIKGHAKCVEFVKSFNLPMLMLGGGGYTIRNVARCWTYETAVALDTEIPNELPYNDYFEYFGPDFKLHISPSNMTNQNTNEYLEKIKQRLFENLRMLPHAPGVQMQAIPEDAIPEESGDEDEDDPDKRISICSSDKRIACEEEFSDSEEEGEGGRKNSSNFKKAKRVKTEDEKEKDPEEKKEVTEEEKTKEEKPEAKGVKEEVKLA

What is called IC50 is the point on the concentration scale where inhibition reaches its midpoint. The GI50 is the concentration giving 50% growth inhibition. For `C/C=C1\NC(=O)c2csc(n2)CNC(=O)C[C@@H](/C=C/CCSSCCCCCCC)OC(=O)[C@H](CCCCN)NC1=O`, the IC50 in [1] is above 10000 nM; in series [2], 5.8 nM; in [3] it was 10.3 nM; in series [4], above 10000 nM; in series [5], above 10000 nM; in series [6], above 10000 nM. In addition, the IC50 in [7] and in [8] was above 10000 nM in each case. The GI50 in series [9] worked out at 11.9 nM. The 50% growth inhibitory concentration (GI50) at 72 h in series [10] stood at 2320 nM. In [11], the selectivity ratio worked out at 194.
